Article PMC8474116, “Discovery of Novel Acetamide-Based Heme Oxygenase-1 Inhibitors with Potent In Vitro Antiproliferative Activity” (Journal of Medicinal Chemistry, 2021)

Assays:
HO-1 [1] = target: T1, HO-1 (Rattus norvegicus, UniProt P06762); assay: HO-1 enzymatic activity, rat spleen microsomal fraction (bilirubin formation); format: biochemical; details: for IC50: rat spleen microsomal fraction, mean of triplicate ± SD; for SI (HO-2/HO-1): ratio of HO-2 and HO-1 IC50
T1 construct: selected to use the most native (i.e., closest to in vivo) forms of HO-1 and HO-2; from tissue; host or cells: rat spleen (male Sprague-Dawley), microsomal fraction
T1 sequence (P06762 1-289): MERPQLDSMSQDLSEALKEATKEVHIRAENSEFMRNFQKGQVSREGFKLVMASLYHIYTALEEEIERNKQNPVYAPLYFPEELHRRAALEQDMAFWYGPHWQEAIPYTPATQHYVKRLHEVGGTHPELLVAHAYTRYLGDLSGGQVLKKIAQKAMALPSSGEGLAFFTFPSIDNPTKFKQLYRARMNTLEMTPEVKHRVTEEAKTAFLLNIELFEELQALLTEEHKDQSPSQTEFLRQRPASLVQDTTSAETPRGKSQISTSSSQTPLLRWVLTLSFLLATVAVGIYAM
Description: (§1) HO-1 and HO-2 were obtained, respectively, from the rat spleen and brain as the microsomal fraction prepared by differential centrifugation; the dominance of HO-1 protein in the rat spleen and HO-2 in the rat brain has been well documented.[24] These particular microsomal preparations were selected to use the most native (i.e., closest to in vivo) forms of HO-1 and HO-2. Spleen and brain (Sprague-Dawley rats) microsomal fractions were prepared according to the procedure outlined by Ryter et al.[2] The experiments reported in the present paper complied with the current Italian law and met the guidelines of the Institutional Animal Care and Use Committee of the Ministry of Health (Directorate General for Animal Health and Veterinary Medicines, Italy) “Dosing of enzymatic activities in rat microsomes” (2018–2022), project code 02769.N.VLY. The experiments were performed in male Sprague-Dawley albino rats (150 g body weight and age 45 d). They had free access to water and were kept at room temperature with a natural photoperiod (12 h light–12 h dark cycle). For measuring HO-1 and HO-2 activities, each rat was sacrificed and their spleen and brain were excised and weighed. A homogenate (15%, w/v) of spleens and brains pooled from four rats was prepared in ice-cold HO-homogenizing buffer (50 mM Tris buffer, pH 7.4, containing 0.25 M sucrose) using a Potter–Elvehjem homogenizing system with a Teflon pestle. The microsomal fraction of rat spleen and brain homogenate was obtained by centrifugation at 10 000g for 20 min at 4 °C, followed by centrifugation of the supernatant at 100 000g for 60 min at 4 °C. The 100 000g pellet (microsomes) was resuspended in 100 mM of potassium phosphate buffer, pH 7.8, containing 2 mM MgCl2 with a Potter–Elvehjem homogenizing system. The rat spleen and brain microsomal fractions were divided into equal aliquots, placed into microcentrifuge tubes, and stored at −80 °C for up to 2 months.
(§2) Liver cytosol has been used as a source of biliverdin reductase. Rat liver was perfused through the hepatic portal vein with cold 0.9% NaCl; then, it was cut and flushed with 2 × 20 mL of ice-cold PBS to remove all of the blood. Liver tissue was homogenized in 3 volumes of a solution containing 1.15% KCl w/v and Tris buffer 20 mM, pH 7.8 on ice. Homogenates were centrifuged at 10 000g for 20 min at 4 °C. The supernatant was decanted and centrifuged at 100 000g for 1 h at 4 °C to sediment the microsomes. The 100 000g supernatant was saved and then stored in small amounts at −80 °C after its protein concentration was measured.
(§3) The HO-1 and HO-2 activities were determined by measuring the bilirubin formation using the difference in absorbance at 464–530 nm, as described by Ryter et al.[2] Reaction mixtures (500 μL) consisted of 20 mM of Tris–HCl, pH 7.4, (1 mg/mL) microsomal extract, 0.5–2 mg/mL of biliverdin reductase, 1 mM of NADPH, 2 mM of glucose 6-phosphate (G6P), 1 U of G6P dehydrogenase, 25 μM of hemin, and 10 μL of DMSO (or the same volume of DMSO solution of test compounds to a final concentration of 100, 10, and 1 μM). Incubations were carried out for 60 min at 37 °C in a circulating water bath in the dark. Reactions were stopped by adding the same volume of chloroform. After recovering the chloroform phase, the amount of bilirubin formed was measured with a double-beam spectrophotometer as OD464–530 nm (extinction coefficient, 40 mM/cm^–1 for bilirubin). One unit of the enzyme was defined as the amount of enzyme catalyzing the formation of 1 nmol of bilirubin/mg protein/h.

HO-2 = target: T2, HO-2 (Rattus norvegicus, UniProt P23711); assay: HO-2 enzymatic activity, rat brain microsomal fraction (bilirubin formation); format: biochemical; details: mean of triplicate ± SD
T2 construct: selected to use the most native (i.e., closest to in vivo) forms of HO-1 and HO-2; from tissue; host or cells: rat brain (male Sprague-Dawley), microsomal fraction
T2 sequence (P23711 1-315): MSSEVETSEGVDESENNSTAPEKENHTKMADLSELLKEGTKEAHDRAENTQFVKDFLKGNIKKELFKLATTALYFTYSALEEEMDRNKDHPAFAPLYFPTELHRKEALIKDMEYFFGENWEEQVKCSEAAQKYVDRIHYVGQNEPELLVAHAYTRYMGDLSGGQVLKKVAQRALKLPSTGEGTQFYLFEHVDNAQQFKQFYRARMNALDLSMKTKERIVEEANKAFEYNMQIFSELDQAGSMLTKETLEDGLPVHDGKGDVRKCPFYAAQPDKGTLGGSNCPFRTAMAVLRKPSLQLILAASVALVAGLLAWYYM
Description: as §1, §2, §3

A172 cells = assay: MTT cell viability assay, A172; format: cell-based, human; details: 48 h
Description: (§4) Experiments were performed on human GBM cell lines U87MG (ATCCC number #HTB-14) and A172 (ATCCC #CRL-1620) on DU145 (ATCC HTB-81) and human lung adenocarcinoma A549 (ATCC CCL-185-LUC2). All cell lines were obtained from the American Type Culture Collection (ATCC, Rockville, MD). Cells were grown in Dulbecco’s modified Eagle’s medium (DMEM) supplemented with 10% of heat-inactivated fetal bovine serum (FBS), 100 U/mL of penicillin, and 100 μg/mL of streptomycin (Sigma-Aldrich, Steinheim, Germany). Cells were incubated at 37 °C in a humidified atmosphere with 5% CO2.
(§5) The effect of selected compounds 7i and 7l–p on cell viability was assessed by performing an MTT assay. Cells were seeded into 96-well plates at a density of 7 × 10^3 cells/well in 100 μL of culture medium. After 24 h, cells were treated with selected compounds at three different concentrations (1 μM, 10 μM, and 50 μM) for 48 h. Following treatments, 0.5 mg/mL of 3-[4,5-dimethylthiazol-2-yl]-2,5-diphenyltetrazolium bromide (MTT) (Sigma-Aldrich) was added to each well and incubated for 4 h at 37 °C. Finally, dimethyl-sulfoxide (DMSO) was used to dissolve formazan salts, and absorbance was measured at 570 nm in a microplate reader (Biotek Synergy-HT). Eight replicate wells were used for each group.

HO-1 [2] = assay: HO-1 protein expression by Western blot, A172; format: cell-based, human; details: A172, 10 μM, 48 h
Description: (§6) Proteins were extracted from total cell lysate, as previously described.[61] Briefly, cell lines were added to a buffer containing 20 mM Tris (pH 7.4), 2 mM EDTA, 0.5 mM EGTA, 50 mM mercaptoethanol, and […] sucrose supplemented with phosphatase and protease inhibitor cocktails (Roche Diagnostics, Monza, Italy). Subsequently, protein samples were sonicated twice for 20′ by using an ultrasonic probe, followed by centrifugation at 10 000g for 10 min at 4 °C. Sample proteins (30 μg) were diluted in 4X NuPage LDS sample buffer (Invitrogen, NP0007), heated at 80 °C for 5 min, and then separated on a Biorad Criterion XT 4–15% Bis–Tris gel (BIO-RAD) by electrophoresis and then transferred to a PVDF membrane (BIO-RAD). Blots were blocked using the Odyssey Blocking Buffer (LI-COR Biosciences) and probed with appropriate antibodies: HO-1 antibody (GeneTex GTX101147), goat polyclonal anti-VEGF (cat. no. sc-1836, Santa Cruz Biotechnology), and rabbit polyclonal anti-β-tubulin (cat n.sc-9104, Santa Cruz Biotechnology) and β-actin antibody (GeneTex GTX109639).
(§7) The secondary antibodies goat antirabbit (Odyssey, #926-32211; Odyssey #926-68021) and donkey antigoat IRDye 800CW (cat #926-32214; Li-Cor Biosciences) were used at 1:7000. Blots were scanned, and densitometric analysis was performed with the Odyssey Infrared Imaging System. Values were normalized to β-actin and to β-tubulin.

HO-1 [3] = assay: HO-1 protein expression by Western blot, DU145; format: cell-based; details: DU145, 10 μM, 48 h
Description: as §6, §7

U87MG cells = assay: MTT cell viability assay, U87MG; format: cell-based, human; details: 48 h, at both concentrations 1 and 10 μM
Description: as §4, §5

A549 cells = assay: MTT cell viability assay, A549; format: cell-based, human; details: 48 h, 10 μM
Description: as §4, §5

DU145 cells = assay: MTT cell viability assay, DU145; format: cell-based; details: 48 h, 1 μM and 10 μM
Description: as §4, §5

HO-1 [4] = assay: HO-1 inhibition of known inhibitors (values printed in Figure 1); format: biochemical; details: 0.27 vs 4.0 μM

| SMILES | HO-1 vs HO-2 selectivity (in words) (HO-1 [1]) | fold more potent than parent compound 4 (HO-1) (HO-1 [1]) | IC50 (HO-1 [1]) [µM] | SI (HO-2/HO-1) (HO-1 [1]) | IC50 (HO-2) [µM] | cell viability reduction (in words) (A172 cells; all tested concentrations (1, 10, 50 μM)) | HO-1 protein expression (in words) (HO-1 [2]) | HO-1 protein expression (in words) (HO-1 [3]) | melting point [°C] | fold less potent than 7o (HO-1) (HO-1 [1]) | fold less potent than compound 7i (HO-1) (HO-1 [1]) [fold] | fold more selective for the inducible isoform (HO-1 over HO-2) (HO-1 [1]) [fold] | cell viability reduction (U87MG cells) | cell viability reduction (in words) (A172 cells; 10 μM) | cell viability reduction (in words) (A172 cells; 50 μM) | cell viability reduction (in words) (A549 cells) | cell viability reduction (in words) (DU145 cells) | fold higher inhibitory potency toward HO-1 with respect to monophenyl analogue 2 (HO-1 [4]) [fold] |
| --- | --- | --- | --- | --- | --- | --- | --- | --- | --- | --- | --- | --- | --- | --- | --- | --- | --- | --- |
| CN(C(=O)Cn1ccnc1)C(c1ccccc1)c1ccccc1 [7i, N-Benzhydryl-2-(1H-imidazol-1-yl)-N-methylacetamide] | superimposable HO-1 and HO-2 IC50 values | about 32 fold | 0.9 ± 0.07 | 1 | 0.9 ± 0.05 | remarkable reduction of cell viability | enhanced its levels | reduced HO-1 protein expression | 121 to 126 | – | – | – | – | – | – | – | – | – |
| CN(C(=O)Cn1ccnc1)C(c1ccccc1)c1ccc(OCc2ccc(Br)cc2)cc1 (stereo not shown) [7p, N-((4-((4-Bromobenzyl)oxy)phenyl)(phenyl)methyl)-2-(1H-imidazol-1-yl)-N-methylacetamide] | – | – | 8 ± 0.39 | 3.1 | 24.71 ± 0.14 | – | – | – | 120 to 121 | about 6.5 fold | ~9 | 3 | around 20% | milder activity | only at 50 μM | weak effect | had efficacies | – |
| O=C(CC(c1ccccc1)c1ccccc1)Cn1ccnc1 [compound 3] | – | – | – | – | – | – | – | – | – | – | – | – | – | – | – | – | – | 15 |
